“And” between values parts separate entries of the source, which are not always exact repeats. Equal values may be shown once.
System: KRAS PDC multicell spheroid viability
Assay: Anticancer human tumor 825966-067-R-J1-PDC patient-derived colon carcinoma cell line growth inhibition [KRAS2]
Conditions: for viability, T/C: stronger effect = lower value
Source text: Multicellular complex tumor spheroid response to RAS pathway inhibitors in combination with a targeted agents in patient-derived cell lines with oncogenic KRAS variants from multiple cancer types
A high-throughput screen of multi-cell type tumor spheroids was designed to identify active combinations of targeted small molecules and KRAS pathway inhibitors. Complex spheroids include a stromal component modeled by human endothelial cells (HUVEC) and fibroblasts modeled by human mesenchymal stem cells (MSCs). The concentration ranges selected for each drug and investigational agent were based upon clinically achievable concentrations if the clinical Cmax of the agent was known.
Compounds. The drugs and investigational agents: BI-3406 (NSC825286), BAY-293 (NSC824723), batoprotafib (TNO155; NSC825523), sotorasib (AMG 510; NSC818433), MRTX1257 (NSC819558), elimusertib (BAY 1895344; NSC800525), molibresib (GSK525762; NSC774829), temuterkib (LY3214996; NSC803410), venetoclax (NSC766270), alisertib (NSC759677), olaparib (NSC753686), talazoparib (NSC767125), erdafitinib (NSC781556), ipatasertib (NSC767898), cabozantinib (NSC761068), nintedanib (NSC756659), abemaciclib (NSC768073), docetaxel (NSC628503), trametinib (NSC758246), and sapanisertib (NSC764658) were obtained from the National Cancer Institute (NCI) Developmental Therapeutics Program Chemical Repository. The FDA-approved anticancer drug set is available from the Developmental Therapeutics Program. […] The stock solutions were prepared in dimethyl sulfoxide (DMSO, Sigma-Aldrich, St. Louis, MO, cat. D2650) at 800-fold the tested concentration and stored at -70 degrees C prior to their use. All drugs and investigational agents were tested over a range starting from a high concentration at or near the clinical Cmax and decreasing in half-log increments. If the clinical Cmax for an agent had not been determined, the highest concentration tested was 10 microM.
Cell Culture. All cells were maintained in an incubator at 37 degrees C and 5% CO2 with 95% humidity. The PDC lines were cultured according to standard operating procedures established by the NCI PDMR (https://pdmr.cancer.gov/sops/default.htm). Briefly, all PDCs were thawed and cultured in Matrigel-coated flasks prepared with a working solution of 1X Ham's F-12 nutrient mix, without supplementation (Invitrogen, Waltham, MA, cat. 11765054), 100 U/mL penicillin-streptomycin (Invitrogen, cat. 15140122), and 2.5% Matrigel (Corning Inc., Corning, NY, cat. 354248) for the first three passages. All PDCs were cultured in complete DMEM/F-12 media containing advanced DMEM/F-12 (Invitrogen, cat. 12634028), 4.9% defined fetal bovine serum, heat inactivated (HyClone Laboratories Inc., Logan, UT, cat. SH30070.03HI), 389 ng/mL hydrocortisone (Sigma-Aldrich, cat. H4001), 9.7 ng/mL human EGF recombinant protein (Invitrogen, cat. PHG0313), 23.4 microg/mL adenine (Sigma-Aldrich, cat. A2786), 97.3 U/mL penicillin-streptomycin (Invitrogen, cat. 15140122), 1.9 mM L-glutamine (Invitrogen, cat. 25030081), and 9.7 microM Y-27632 dihydrochloride (Tocris Bioscience, Bristol, United Kingdom, cat. 1254). The PDCs were cultured in complete DMEM/F12 media without 9.7 microM Y-27632 dihydrochloride for at least two passages prior to the screen. The established cell line HOP-62 was cultured in RPMI 1640 medium, HEPES (Invitrogen, cat. 22400105) with 10% defined fetal bovine serum (HyClone Laboratories Inc., cat. SH30070.03) and 2 mM L-glutamine (Invitrogen, cat. 25030081). The pooled donor HUVEC were cultured in endothelial cell growth medium 2 (PromoCell, Heidelberg, Germany, cat. C-22011) and the hMSC were cultured in mesenchymal stem cell growth medium 2 (PromoCell, cat. C-28009). For all experiments, HUVEC and hMSC were used at passages </=5, while the malignant cell lines were used at passages </=15. […]

[1] = curve of first compound, second compound 0.1 µM
[2] = curve of first compound, second compound 0.316 µM
[3] = curve of first compound, second compound 1 µM
[4] = curve of first compound, second compound 3.16 µM
[5] = curve of first compound, second compound 10 µM
[6] = second compound 0.1 µM, first compound 0.0316 µM
[7] = second compound 0.1 µM, first compound 0.1 µM
[8] = second compound 0.1 µM, first compound 0.316 µM
[9] = second compound 0.1 µM, first compound 1 µM
[10] = second compound 0.1 µM, first compound 3.16 µM
[11] = second compound 0.1 µM, first compound 10 µM
[12] = second compound 0.316 µM, first compound 0.0316 µM
[13] = second compound 0.316 µM, first compound 0.1 µM
[14] = second compound 0.316 µM, first compound 0.316 µM
[15] = second compound 0.316 µM, first compound 1 µM
[16] = second compound 0.316 µM, first compound 3.16 µM
[17] = second compound 0.316 µM, first compound 10 µM
[18] = second compound 1 µM, first compound 0.0316 µM
[19] = second compound 1 µM, first compound 0.1 µM
[20] = second compound 1 µM, first compound 0.316 µM
[21] = second compound 1 µM, first compound 1 µM
[22] = second compound 1 µM, first compound 3.16 µM
[23] = second compound 1 µM, first compound 10 µM
[24] = second compound 3.16 µM, first compound 0.0316 µM
[25] = second compound 3.16 µM, first compound 0.1 µM
[26] = second compound 3.16 µM, first compound 0.316 µM
[27] = second compound 3.16 µM, first compound 1 µM
[28] = second compound 3.16 µM, first compound 3.16 µM
[29] = second compound 3.16 µM, first compound 10 µM
[30] = second compound 10 µM, first compound 0.0316 µM
[31] = second compound 10 µM, first compound 0.1 µM
[32] = second compound 10 µM, first compound 0.316 µM
[33] = second compound 10 µM, first compound 1 µM
[34] = second compound 10 µM, first compound 3.16 µM
[35] = second compound 10 µM, first compound 10 µM
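Also: spheroids exposed to compounds for 7 days.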
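For viability, T/C in this document: 100% = DMSO vehicle control viability.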

Compound	IC50 [1] [nM]	IC50 [2] [nM]	IC50 [3] [nM]	IC50 [4] [nM]	viability, T/C [6] [%]	viability, T/C [7] [%]	viability, T/C [8] [%]	viability, T/C [9] [%]	viability, T/C [10] [%]	viability, T/C [11] [%]	viability, T/C [12] [%]	viability, T/C [13] [%]	viability, T/C [14] [%]	viability, T/C [15] [%]	viability, T/C [16] [%]	viability, T/C [17] [%]	viability, T/C [18] [%]	viability, T/C [19] [%]	viability, T/C [20] [%]	viability, T/C [21] [%]	further results
CC(C)NCC(C(=O)N1CCN(c2ncnc3c2C(C)CC3O)CC1)c1ccc(Cl)cc1 (centres undefined) + C=CC(=O)N1CCN(c2nc(=O)n(-c3c(C)ccnc3C(C)C)c3nc(-c4c(O)cccc4F)c(F)cc23)C(C)C1	2270	1640	1470	1600	105	139	155	93.6	35.2	10.4	104	127	136	73.7	26.6	10.6	88.7	121	120	69	IC50 [5]: 235 nM; viability, T/C [22]: 16.9%; viability, T/C [23]: 6.64%; viability, T/C [24]: 97.2%; viability, T/C [25]: 130%; viability, T/C [26]: 110%; viability, T/C [27]: 68.5%; viability, T/C [28]: 23.6%; viability, T/C [29]: 9.85%; viability, T/C [30]: 76.2%; viability, T/C [31]: 150%; viability, T/C [32]: 27.9%; viability, T/C [33]: 14.5%; viability, T/C [34]: 6.65%; viability, T/C [35]: 2.19%
Cn1nccc1Nc1nccc(-c2cc3c(s2)C(C)(C)N(CCN2CCOCC2)C3=O)n1 + CC1OCC2(CCN(c3cnc(Sc4ccnc(N)c4Cl)c(N)n3)CC2)C1N	> 10000	> 10000	> 10000	> 10000	125	97.3	128	95.8	104	68.5	88.8	124	131	104	87.4	77.3	93	115	106	81.9	IC50 [5]: 85 nM; viability, T/C [22]: 89.2%; viability, T/C [23]: 63.3%; viability, T/C [24]: 107%; viability, T/C [25]: 130%; viability, T/C [26]: 92.3%; viability, T/C [27]: 56.6%; viability, T/C [28]: 59%; viability, T/C [29]: 77%; viability, T/C [30]: 80.4%; viability, T/C [31]: 45%; viability, T/C [32]: 14.4%; viability, T/C [33]: 6.71%; viability, T/C [34]: 12.1%; viability, T/C [35]: 43.9%
CC1(C)CCC(CN2CCN(c3ccc(C(=O)NS(=O)(=O)c4ccc(NCC5CCOCC5)c([N+](=O)[O-])c4)c(Oc4cnc5[nH]ccc5c4)c3)CC2)=C(c2ccc(Cl)cc2)C1 + C=CC(=O)N1CCN(c2nc(OCC3CCCN3C)nc3c2CCN(c2cccc4cccc(C)c24)C3)CC1CC#N	1790	1770	1810	347	96.7	72	98.6	96.3	9.74	5.69	93.8	88.8	87.9	93.4	8.01	5.23	98.6	103	100	104	IC50 (curve of first compound, second compound 0.0316 µM): 1850 nM; viability, T/C (second compound 0.0316 µM, first compound 0.0316 µM): 104%; viability, T/C (second compound 0.0316 µM, first compound 0.1 µM): 96%; viability, T/C (second compound 0.0316 µM, first compound 0.316 µM): 84.3%; viability, T/C (second compound 0.0316 µM, first compound 1 µM): 93%; viability, T/C (second compound 0.0316 µM, first compound 3.16 µM): 12.6%; viability, T/C (second compound 0.0316 µM, first compound 10 µM): 0.73%; viability, T/C [22]: 1.8%; viability, T/C [23]: 0.52%; viability, T/C [24]: 89%; viability, T/C [25]: 78.2%; viability, T/C [26]: 54.7%; viability, T/C [27]: 10.2%; viability, T/C [28]: 0.3%; viability, T/C [29]: 2.95%
CC(=O)Nc1cccc(-n2c(=O)n(C3CC3)c(=O)c3c(Nc4ccc(I)cc4F)n(C)c(=O)c(C)c32)c1	–	–	–	–	–	–	–	–	–	–	–	–	–	–	–	–	–	–	–	–	viability, T/C (compound 0.0001 µM): 96.8% [middle of 5 runs]; viability, T/C (compound 0.000316 µM): 94.2% [middle of 5 runs]; viability, T/C (compound 0.01 µM): 104% [middle of 5 runs]; IC50 (curve of compound): > 31.6 nM and 28 nM

Reference: PubChem BioAssay AID1963865 (Molecular Pharmacology Branch, DTP, NCI, 2024)
